Measurements: PMC10485894, “Corticosteroids as Selective and Effective Modulators of Glycine Receptors” (ACS Chemical Neuroscience, 2023)
Where two headings read alike, the source gives them in different places.

How the values were obtained:
[1] = test system: GABA-A receptors (GABAAR); test: GABA-activated chloride current (IGABA), whole-cell patch clamp in isolated cerebellar Purkinje cells
Experimental: (§1) First, the ability of steroids to affect the holding current at the voltage-clamp regime was tested. […] Next, the influence of all of the compounds on IGABA and IGly was evaluated. […] The latter effect was quantified by the change in the time constant of the IGly decay (IGly τdes).
(§2) The cells were isolated from rat brain slices as described in detail elsewhere.[47] Briefly, the slices (200–500 μm) of Wistar rat (11–14 days of age) hippocampus or cerebellum were incubated at room temperature for at least 2 h in a solution containing the following components (in mM): 124 NaCl, 3 KCl, 2 CaCl2, 2 MgSO4, 25 NaHCO3, 1.3 NaH2PO4, and 10 D-glucose, pH 7.4. The saline was continuously stirred and bubbled with carbogen (95% O2 + 5% CO2). Single pyramidal neurons from the hippocampal CA3 area or Purkinje cells from sagittal slices of the cerebellum were isolated by a vibrating fused glass pipet with a spherical tip.
(§3) Transmembrane currents were recorded using a conventional patch-clamp technique in the whole-cell configuration. […] The solution in the recording pipet contained the following (in mM): 40 CsF, 100 CsCl, 0.5 CaCl2, 5 EGTA, 3 MgCl2, 4 NaATP, 5 HEPES, pH 7.3. The composition of the extracellular solution was as follows (in mM): 140 NaCl, 3 KCl, 3 CaCl2, 3 MgCl2, 10 D-glucose, 10 HEPES hemisodium, pH 7.4. The speed of perfusion was 0.6 mL/min. Recording of the currents was performed using an EPC7 patch-clamp amplifier (HEKA Elektronik, Germany). The holding potential was maintained at −70 mV. Transmembrane currents were filtered at 3 kHz, stored, and analyzed with IBM-PC computer, using homemade software.
(§4) Statistical analysis was performed with Prism Graphpad software. […] N = 6–8 cells from 3 animals for every average value. […] The EC50 value for steroid potentiation of the IGABA was determined using the equation: Y = Bottom + (Top – Bottom)/[1 + (EC50/C)^n], where Bottom and Top are current amplitudes measured in the control solution and in the presence of steroid, respectively, C is the concentration of steroid, EC50 is the half-maximal stimulating concentration, and n is the slope factor (Hill coefficient).

glycine receptors (GlyR) = test: Glycine-activated chloride current (IGly), whole-cell patch clamp in isolated hippocampal pyramidal neurons; details: for normalized charge (Q) of IGly, maximum inhibition (max) / Ipeak max (maximum inhibition attainable) / IC50 / τdes max (maximum inhibition attainable): 100 μM glycine; for normalized charge (Q) of IGly, maximum inhibition (max) / Ipeak max (maximum inhibition attainable) / τdes max (maximum inhibition attainable): fraction; for IGly peak, effect at 10 μM / IGly τdes, effect at 10 μM: steroid 10 μM coapplied with 100 μM glycine; for IGly peak, effect at 10 μM: hippocampal neurons; for IGly τdes, effect at 10 μM: time constant of IGly decay; for τdes max (maximum inhibition attainable): time constant of desensitization of IGly;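 on all read-outs here: rat CA3 hippocampal pyramidal cells, whole-cell voltage clamp held at −70 mV, steroids tested over 0.01–100 µM, 6–8 cells from 3 animals per mean value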
Experimental: as §1, §2, §3, §4

[2] = read-out: Ipeak IC50, peak amplitude of IGly
[3] = read-out: normalized charge (Q) of IGly, IC50, area under the IGly curve
[4] = read-out: τdes IC50, acceleration of IGly desensitization
[5] = steroid 10 μM coapplied with GABA (2 or 5 μM), Purkinje cells

Row | SMILES | IGABA peak, effect at 10 μM [1] | Ipeak max (maximum inhibition attainable) (glycine receptors (GlyR); peak amplitude of IGly) | IC50 (glycine receptors (GlyR); [2]) | IC50 (glycine receptors (GlyR); [4]) | IGly peak, effect at 10 μM (glycine receptors (GlyR)) | IGly τdes, effect at 10 μM (glycine receptors (GlyR)) | τdes max (maximum inhibition attainable) (glycine receptors (GlyR)) | IGABA peak, effect at 10 μM [1, 5] | also measured
1 | C[C@]12CC[C@H](O)CC1=CCC1C2CC[C@@]2(C)C1CC[C@]2(O)C(=O)CO (stereo partly drawn) [17α,21-diOH-PREG, 3β,17α,21-Trihydroxypregn-5-en-20-one] | No effect | 0.45 ± 0.1 | 7.2 ± 2.6 µM | 0.39 ± 0.05 µM | -27% | -76% | 0.77 ± 0.03 | – | normalized charge (Q) of IGly, maximum inhibition (max) (glycine receptors (GlyR); area under the IGly curve): 0.52 ± 0.01; IC50 (glycine receptors (GlyR); [3]): 0.73 ± 0.06 µM
2 | C[C@]12CCC(=O)C=C1CC[C@@H]1[C@@H]2CC[C@@]2(C)[C@H]1CC[C@]2(O)C(=O)CO [11-Deoxycortisol, 17α,21-Dihydroxypregn-4-ene-3,20-dione] | – | 0.69 ± 0.2 | 21.4 ± 7.6 µM | 13.8 ± 6.3 µM | -26% | -21% | 0.50 ± 0.08 | No effect | amplitude of IGABA, % of control (inhibition) ([1]; 100 μM steroid, 5 μM GABA): 58 ± 5 % of the control
3 | C[C@]12CCC(=O)C=C1CC[C@@H]1[C@@H]2[C@@H](O)C[C@@]2(C)[C@H]1CC[C@]2(O)C(=O)CO [Cortisol, 11β,17α,21-Trihydroxypregn-4-ene-3,20-dione] | – | 0.49 ± 0.1 | 20.2 ± 9.8 µM | 0.63 ± 0.02 µM | -23% | -40% | 0.42 ± 0.05 | No effect | –
4 | C[C@]12CCC(=O)C=C1CC[C@@H]1[C@@H]2C(=O)C[C@@]2(C)[C@H]1CC[C@]2(O)C(=O)CO [Cortisone, 17α,21-Dihydroxypregn-4-ene-3,11,20-trione] | – | 0.57 ± 0.1 | 13.6 ± 5.5 µM | 10.3 ± 3.4 µM | -25% | -24% | 0.48 ± 0.06 | No effect | –
5 | C[C@]12CC[C@H]3[C@@H](CCC4=CC(=O)CC[C@@]43C)[C@@H]1CC[C@@H]2C(=O)CO [11-deoxy-CORT, 21-Hydroxypregn-4-ene-3,20-dione] | No effect | 0.67 ± 0.2 | 22.9 ± 9.4 µM | 12.2 ± 3.7 µM | No effect | -32% | 0.72 ± 0.08 | – | amplitude of IGABA, % of control (inhibition) [1]: 70 ± 3 % of the control; effect on IGly at low glycine (glycine receptors (GlyR); 1 μM steroid, 25 μM glycine (EC10)): did not affect; decrease in the peak amplitude of IGly (glycine receptors (GlyR); 50 μM steroid, 25 μM glycine (EC10)): 45 ± 7%
6 | C[C@]12CC[C@@H](O)C[C@@H]1CC[C@@H]1[C@@H]2[C@@H](O)C[C@]2(C)[C@@H](C(=O)CO)CC[C@@H]12 [3α5α-CORT, 3α,11β,21-Trihydroxy-5α-pregnan-20-one] | – | 0.51 ± 0.1 | 11.8 ± 5.7 µM | 0.72 ± 0.03 µM | -26% | -54% | 0.59 ± 0.08 | – | IGABA, % of control [1]: 120 ± 16 % of control; effect on maximal GABA current [1]: did not change; maximum effect (max) on IGABA [1]: 420 ± 19 % of the control; potentiating effect on IGABA at higher GABA concentrations [1]: not observed; threshold concentration for potentiation of IGABA ([1]; 2 μM GABA): 5 µM; IGABA peak amplitude, % of control ([1]; 5 μM steroid, 2 μM GABA): 150 ± 8 % of the control; IGABA, % of control ([1]; 50 μM steroid, 2 μM GABA): 371 ± 16 % of control; IGABA, % of control ([1]; 50 μM steroid, 5 μM GABA): 156 ± 15 % of control
7 | C[C@]12CC[C@@H](O)C[C@H]1CC[C@@H]1[C@@H]2[C@@H](O)C[C@]2(C)[C@@H](C(=O)CO)CC[C@@H]12 [3α5β-CORT, 3α,11β,21-Trihydroxy-5β-pregnan-20-one] | – | 0.44 ± 0.1 | 23 ± 9.6 µM | 15.2 ± 6.2 µM | No effect | -24% | 0.56 ± 0.08 | – | IGABA peak amplitude, % of control [1]: 133 ± 8 % of the control; effect on maximal GABA current [1]: did not change; maximum effect (max) on IGABA [1]: 198 ± 11 % of the control; threshold concentration for potentiation of IGABA ([1]; 2 μM GABA): 10 µM; IGABA, % of control ([1]; 50 μM steroid, 2 μM GABA): 172 ± 18 % of control; IGABA, % of control ([1]; 50 μM steroid, 5 μM GABA): 139 ± 16 % of control
8 | CN1CCc2cc3c(cc2[C@H]1[C@@H]1OC(=O)c2c1ccc1c2OCO1)OCO3 [bicuculline] | – | – | – | – | – | – | – | – | effect on IGABA [1]: reversibly blocked
9 | C[C@]12CCC(=O)C[C@H]1CC[C@@H]1[C@@H]2CC[C@]2(C)[C@@H](C(=O)CO)CC[C@@H]12 [5β-CORT, 21-Hydroxy-5β-pregnane-3,20-dione] | No effect | 0.85 ± 0.3 | 29.3 ± 9.9 µM | 13.1 ± 5.8 µM | No effect | -27% | 0.61 ± 0.09 | – | normalized charge (Q) of IGly, maximum inhibition (max) (glycine receptors (GlyR); area under the IGly curve): 0.96 ± 0.15; IC50 (glycine receptors (GlyR); [3]): 37 ± 13 µM
10 | C[C@]12C[C@H](O)[C@H]3[C@@H](CCC4=CC(=O)CC[C@@]43C)[C@@H]1CC[C@@H]2C(=O)CO [CORT, 11β,21-Dihydroxypregn-4-ene-3,20-dion] | – | 0.54 ± 0.1 | 12.6 ± 4.8 µM | 0.43 ± 0.05 µM | -26% | -64% | 0.64 ± 0.02 | No effect | –
11 | C[C@]12CCC(=O)C[C@@H]1CC[C@@H]1[C@@H]2CC[C@]2(C)[C@@H](C(=O)CO)CC[C@@H]12 [5α-CORT, 21-Hydroxy-5α-pregnane-3,20-dione] | No effect | 0.86 ± 0.2 | 32 ± 12.6 µM | 0.71 ± 0.02 µM | No effect | -36% | 0.37 ± 0.04 | – | –
12 | NCC(=O)O [glycine] | – | – | – | – | – | – | – | – | EC50 (glycine receptors (GlyR); read-out: EC50 of glycine for IGly, 600–1000 ms application): 90 ± 7 µM
